From US11001590B2, “Pyrazolopyrimidine derivatives” (BAYER ANIMAL HEALTH GMBH, priority 2016, dated 2021)

Experiments:
[1] = log P by HPLC on reversed phase columns (Method L0; [a] acidic, [b] neutral range); settings: for logP (Method L0) [a]: HPLC on reversed phase columns, Method L0, [a] acidic range; for log P: HPLC on reversed phase columns (Method L0)
Protocol: Calibration was done with straight-chain alkan-2-ones (with 3 to 16 carbon atoms) with known log P values (measurement of log P values using retention times with linear interpolation between successive alkanones). Lambda-max-values were determined using UV-spectra from 200 nm to 400 nm and the peak values of the chromatographic signals.

C. elegans Slo-1a = C. elegans Slo-1a (Caenorhabditis elegans, UniProt Q95V25); test: In vitro assay 1: C. elegans Slo-1a, action at a recombinant C. elegans CHO cell line (membrane potential measurement); settings: CHO cells expressing C. elegans Slo-1a; voltage sensitive dye, FLIPR Tetra; negative decadic logarithm of EC50
Sequence of C. elegans Slo-1a (Q95V25 whole entry): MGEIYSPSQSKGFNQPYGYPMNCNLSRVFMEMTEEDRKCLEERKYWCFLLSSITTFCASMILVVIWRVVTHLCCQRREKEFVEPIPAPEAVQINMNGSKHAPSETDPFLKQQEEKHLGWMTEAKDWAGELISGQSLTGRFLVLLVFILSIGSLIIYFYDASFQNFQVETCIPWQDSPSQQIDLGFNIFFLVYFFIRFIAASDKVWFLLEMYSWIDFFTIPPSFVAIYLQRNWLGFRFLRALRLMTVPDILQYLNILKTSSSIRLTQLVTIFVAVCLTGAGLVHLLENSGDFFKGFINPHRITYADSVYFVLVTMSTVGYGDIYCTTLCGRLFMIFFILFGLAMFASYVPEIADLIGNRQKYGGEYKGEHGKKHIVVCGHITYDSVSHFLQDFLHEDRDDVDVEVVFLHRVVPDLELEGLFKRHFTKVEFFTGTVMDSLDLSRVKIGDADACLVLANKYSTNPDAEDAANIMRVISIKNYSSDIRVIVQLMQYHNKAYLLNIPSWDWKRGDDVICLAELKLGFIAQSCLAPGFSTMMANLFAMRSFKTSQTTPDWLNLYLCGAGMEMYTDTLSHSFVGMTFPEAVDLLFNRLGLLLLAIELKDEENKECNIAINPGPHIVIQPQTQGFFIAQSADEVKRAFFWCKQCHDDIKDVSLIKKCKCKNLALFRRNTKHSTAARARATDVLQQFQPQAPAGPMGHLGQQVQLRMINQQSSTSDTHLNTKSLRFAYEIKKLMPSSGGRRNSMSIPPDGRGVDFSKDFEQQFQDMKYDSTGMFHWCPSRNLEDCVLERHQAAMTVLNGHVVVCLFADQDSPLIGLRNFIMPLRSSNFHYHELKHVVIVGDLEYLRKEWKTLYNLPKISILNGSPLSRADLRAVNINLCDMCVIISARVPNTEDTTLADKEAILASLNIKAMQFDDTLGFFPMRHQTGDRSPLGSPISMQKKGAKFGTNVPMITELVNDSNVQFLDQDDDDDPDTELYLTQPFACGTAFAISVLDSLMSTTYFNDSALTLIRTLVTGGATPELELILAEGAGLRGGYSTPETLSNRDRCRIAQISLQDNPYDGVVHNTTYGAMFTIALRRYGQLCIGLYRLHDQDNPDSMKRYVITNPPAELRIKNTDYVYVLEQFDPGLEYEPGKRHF

[2] = last column of Table 1, column head not shown

SMILES: CC(C)c1c(C(=O)N[C@H]2CCCc3ccccc32)cnc2c(-c3ccc(Cl)cc3)c(Cl)nn12 [Example 76]
- logP (Method L0) [a] [1]: 5.79

SMILES: Cc1nn2c(C(C)C)c(C(=O)N[C@H]3CCc4ccccc43)cnc2c1-c1ccc(NS(C)(=O)=O)cc1 [Examples 330]
- log P [1]: 3.38

SMILES: Cc1c(C(=O)N[C@H]2CCCc3ccccc32)cnc2c(-c3cc(Cl)cc(Cl)c3)c(Cl)nn12 [Example 68]
- logP (Method L0) [a] [1]: 5.78

SMILES: Cc1nn2c(C(C)C)c(C(=O)N[C@H]3CCc4ccccc43)cnc2c1-c1cn[nH]c1 [Examples 307]
- log P [1]: 2.75

SMILES: O=C(N[C@H]1CCc2ccccc21)c1cnc2c(-c3cccc(C(F)(F)F)c3)c(C(F)(F)F)nn2c1 [Example 87]
- logP (Method L0) [a] [1]: 4.66

SMILES: CCSc1nn2c(C(C)C)c(C(=O)N[C@H]3CCOc4ccccc43)cnc2c1-c1cc(Cl)cc(Cl)c1 [Example 200]
- log P [1]: 6.71

SMILES: COc1c(C(=O)N[C@H]2CCOc3ccccc32)cnc2c(-c3cc(Cl)cc(Cl)c3)c(C)nn12 [Example 521]
- log P [1, 2]: 3.56

SMILES: Cc1c(C(=O)N[C@H]2CCCc3ccccc32)cnc2c(-c3cc(Cl)cc(Cl)c3)c(C(F)(F)F)nn12 [Example 82]
- logP (Method L0) [a] [1]: 5.66

SMILES: Cc1nn2c(C(F)(F)F)c(C(=O)N[C@H]3CCc4ccccc43)cnc2c1-c1cccc(F)c1 [Examples 387]
- log P [1]: 4.53

SMILES: COc1c(C(=O)N[C@H]2CCOc3ccccc32)cnc2c(-c3cc(Cl)cc(Cl)c3F)c(C)nn12 [Example 515]
- log P [1, 2]: 3.17

SMILES: CC(=O)Nc1ccc(-c2c(C)nn3c(C(C)C)c(C(=O)N[C@H]4CCc5ccccc54)cnc23)cc1 [Examples 327]
- log P [1]: 3.24

SMILES: CC(C)c1c(C(=O)N[C@H]2CCCc3ccccc32)cnc2c(-c3ccc(Cl)cc3)c(C(F)(F)F)nn12 [Example 54]
- logP (Method L0) [a] [1]: 5.76

SMILES: CC(C)c1c(C(=O)N[C@H]2CCc3ccccc32)cnc2c(-c3cccc(OC(F)(F)F)c3)c(C3CC3)nn12 [Examples 406]
- log P [1, 2]: 6.11

SMILES: CC(C)c1c(C(=O)N[C@H]2CCc3ccccc32)cnc2c(-c3cccc(F)c3)c(C3CC3)nn12 [Example 416]
- log P [1, 2]: 5.41

SMILES: Cc1nn2c(C(C)C)c(C(=O)N[C@H]3CCc4ccccc43)cnc2c1-c1ccc(Cl)c(C(=O)NC2CC2)c1 [Example 120]
- logP (Method L0) [a] [1]: 3.78

SMILES: CC(C)c1c(C(=O)N[C@H]2CCc3ccccc32)cnc2c(-c3cccc(Cl)c3)c(C3CC3)nn12 [Example 411]
- log P [1, 2]: 5.87

SMILES: COCc1cccc(-c2c(C3CC3)nn3c(C(C)C)c(C(=O)N[C@H]4CCc5ccccc54)cnc23)c1 [Examples 409]
- log P [1, 2]: 5.13

SMILES: CC(C)c1c(C(=O)N[C@H]2CCc3ccccc32)cnc2c(-c3ccc(F)nc3)c(C(F)(F)F)nn12 [Example 161]
- logP (Method L0) [a] [1]: 4.35

SMILES: CC(C)c1c(C(=O)N[C@H]2CCc3ccccc32)cnc2c(-c3ccc(Cl)nc3)c(C(F)(F)F)nn12 [Example 164]
- logP (Method L0) [a] [1]: 4.7

SMILES: Cc1nc2c(-c3cc(Cl)cc(Cl)c3)c(C)nn2c(C)c1C(=O)N[C@H]1CCOc2ccccc21 [Example 268]
- log P [1]: 4.76

SMILES: COCc1cccc(-c2c(C)nn3c(C(F)(F)F)c(C(=O)N[C@H]4CCc5ccccc54)cnc23)c1 [Examples 371]
- log P [1]: 4.32

SMILES: Cc1c(C(=O)N[C@H]2CCc3ccccc32)cnc2c(-c3ccc(Cl)cc3)c(C(F)(F)F)nn12 [Example 57]
- logP (Method L0) [a] [1]: 4.7

SMILES: Cc1nn2c(C(C)C)c(C(=O)N[C@H]3CCc4ccccc43)cnc2c1-c1cnn(CCN(C)C)c1 [Examples 404]
- log P [1, 2]: 1.75

SMILES: CC(C)c1c(C(=O)N[C@H]2CCCc3ccccc32)cnc2c(-c3cccc(Cl)c3)c(C(F)(F)F)nn12 [Example 51]
- logP (Method L0) [a] [1]: 5.74

SMILES: CC(C)c1c(C(=O)N[C@H]2CCc3ccccc32)cnc2c(-c3cc(Cl)cc(Cl)c3)c(S(=O)(=O)C(C)C)nn12 [Example 214]
- log P [1]: 4.85

SMILES: Cc1nn2c(C3CC3)c(C(=O)N[C@H]3CCOc4ccccc43)cnc2c1-c1ccnc(N2CCOCC2)c1 [Example 526]
- log P [1, 2]: 1.53

SMILES: Cc1c(C(=O)N[C@H]2CCCc3ccccc32)cnc2c(-c3cccc(Cl)c3)c(Cl)nn12 [Example 58]
- logP (Method L0) [a] [1]: 4.9

SMILES: Cc1c(C(=O)N[C@H]2CCc3ccccc32)cnc2c(-c3cccc(Cl)c3)c(C(F)(F)F)nn12 [Example 55]
- logP (Method L0) [a] [1]: 4.68

SMILES: CC(C)c1c(C(=O)N[C@H]2CCc3ccccc32)cnc2c(-c3ccc(F)cc3)c(C(F)(F)F)nn12 [Example 162]
- logP (Method L0) [a] [1]: 4.95

SMILES: CCSc1nn2c(C(C)C)c(C(=O)N[C@H]3CCc4ccccc43)cnc2c1-c1cc(Cl)cc(Cl)c1 [Example 201]
- log P [1]: 6.93

SMILES: Cc1c(C(=O)N[C@H]2CCCc3ccccc32)cnc2c(-c3ccc(Cl)cc3)c(C(F)(F)F)nn12 [Example 53]
- logP (Method L0) [a] [1]: 4.97

SMILES: O=C(N[C@H]1CCc2ccccc21)c1cnc2c(-c3ccc(Cl)cc3)c(C(F)(F)F)nn2c1 [Example 80]
- logP (Method L0) [a] [1]: 4.61

SMILES: Cc1nn2c(C(F)(F)F)c(C(=O)N[C@H]3CCc4ccccc43)cnc2c1-c1c(F)cccc1F [Example 410]
- log P [1, 2]: 4.16

SMILES: CC(C)c1c(C(=O)N[C@H]2CCOc3ccccc32)cnc2c(-c3cnn(CC(F)(F)F)c3)c(C(F)(F)F)nn12 [Example 129]
- logP (Method L0) [a] [1]: 4.21

SMILES: Cc1c(C(=O)N[C@H]2CCc3ccccc32)cnc2c(-c3cccc(C(F)(F)F)c3)c(C(F)(F)F)nn12 [Example 85]
- logP (Method L0) [a] [1]: 4.77

SMILES: Cc1nn2c(C(F)(F)F)c(C(=O)N[C@H]3CCc4ccccc43)cnc2c1-c1cccc(OC(F)(F)F)c1 [Examples 383]
- log P [1]: 5.21

SMILES: Cc1nn2c(N3CCOCC3)c(C(=O)N[C@H]3CCOc4ccccc43)cnc2c1-c1c(Cl)cccc1Cl [Example 544]
- pE50 (C. elegans Slo-1a): 8.3

SMILES: Cc1c(C(=O)N[C@H]2CCCc3ccccc32)cnc2c(-c3ccccc3Cl)cnn12 [Example 42]
- pE50 (C. elegans Slo-1a): 6.2

SMILES: O=C(N[C@H]1CCOc2ccccc21)c1cnc2c(-c3ccc(Cl)cc3Cl)c(C(F)F)nn2c1C1CC1 [Example 511]
- pE50 (C. elegans Slo-1a): 8.4

SMILES: CC(C)c1c(C(=O)N[C@H]2CCCc3ccccc32)cnc2c(-c3cccc(F)c3F)c(Cl)nn12 [Example 286]
- pE50 (C. elegans Slo-1a): 7.9

SMILES: CC(C)c1c(C(=O)N[C@H]2CCOc3ccccc32)cnc2c(-c3cccc(F)c3F)c(C(F)F)nn12 [Example 279]
- pE50 (C. elegans Slo-1a): 8.2

SMILES: Cc1c(C(=O)N[C@H]2CCc3ccccc32)cnc2c(-c3ccc(Cl)cc3)cnn12 [Example 31]
- pE50 (C. elegans Slo-1a): 6.7

SMILES: CC(C)c1c(C(=O)N[C@H]2CCOc3ccccc32)cnc2c(-c3c(F)cccc3F)c(C(F)F)nn12 [Example 495]
- pE50 (C. elegans Slo-1a): 8.3

SMILES: CC(C)c1c(C(=O)N[C@H]2CCc3ccccc32)cnc2c(-c3ccccc3Cl)cnn12 [Example 24]
- pE50 (C. elegans Slo-1a): 7.2

SMILES: Cc1c(C(=O)N[C@H]2CCCc3ccccc32)cnc2c(-c3ccc(Cl)cc3)cnn12 [Example 41]
- pE50 (C. elegans Slo-1a): 4.8

SMILES: CC(C)c1c(C(=O)N[C@H]2CCOc3ccccc32)cnc2c(-c3c(Cl)cccc3Cl)c(C(F)F)nn12 [Example 503]
- pE50 (C. elegans Slo-1a): 7.9

SMILES: CC(C)c1c(C(=O)N[C@H]2CCOc3ccccc32)cnc2c(-c3cc(Cl)c(F)c(Cl)c3)c(C(F)F)nn12 [Example 282]
- pE50 (C. elegans Slo-1a): 8.3

SMILES: CCc1c(C(=O)N[C@H]2CCOc3ccccc32)cnc2c(-c3cc(Cl)ccc3Cl)c(C)nn12 [Example 486]
- pE50 (C. elegans Slo-1a): 8.4

SMILES: Cc1c(C(=O)N[C@H]2CCc3ccccc32)cnc2c(-c3ccccc3Cl)cnn12 [Example 43]
- pE50 (C. elegans Slo-1a): 6.8

SMILES: Cc1nn2c(C(C)C)c(C(=O)N[C@H]3CCCc4ccccc43)cnc2c1-c1ccccc1Cl [Example 19]
- pE50 (C. elegans Slo-1a): 8
